Assay [1] has as its system Human RSV-A (“Long” strain). The experiment in a line: RSV-A assay (CPE, ATPlite) in Hep-2 cells. Type of assay: cell-based. The conditions noted are these: human respiratory syncytial virus, 120 h, MOI 0.1, 5-day incubation, ATPlite readout. From the text: Hep-2 cells, (originally derived from tumors grown in irradiated-cortisonised weanling rats that had been injected with epidermoid carcinoma tissue from a person's larynx, but later found to be indistinguishable from HeLa cells by PCR DNA analysis), were used for the culturing of genotype A, “Long” strain RSV. Flasks were inoculated with RSV and viral stocks were collected once cytopathic effect (CPE) was greater than 90%. Viral stocks in 25% sucrose media were snap frozen using liquid nitrogen to increase viral stability. Viral stock titers were quantified by tissue culture infectious dose 50% (TCID50) using 8,000 cells per well and 3-fold viral dilutions across a 96-well plate, cultured for 4 days. Viral stock titers were also quantified by a plaque forming unit assay, as described elsewhere.
Following extensive parameter testing, the final assay is run as follows: Hep-2 cells are seeded into the inner 60 wells of a 96-well plate at 8,000 cells per well in a volume of 50 μL using Growth Media (DMEM without phenol red, 1% L-Glut, 1% Penn/Strep, 1% nonessential amino acids, 10% heat-inactivated FBS). 2-fold serial dilutions of control and test compounds are added to the wells in duplicate in a total volume of 25 μL. Viral stock is then added to the wells at a multiplicity of infection (MOI) of 0.1 in a volume of 25 μL, bringing the total volume of each well to 100 μL. The MOI is calculated using the PFU/mL, or TCID50 if unavailable. Each 96-well plate has a control column of 6 wells with cells and virus but no compound (negative control, max CPE), a column with cells but no compound or virus (positive control, minimum CPE), and a column with no cells or virus or compound (background plate/reagent control). The control wells with cells but no virus are given an additional 25 μL of growth media containing an equal quantity of sucrose as those wells receiving the viral stock in order to keep consistent in media and volume conditions. The outer wells of the plate are filled with 125 μL of moat media (DMEM, 1% Penn/Strep) to act as a thermal and evaporative moat around the test wells. Following a 5-day incubation period, the plates are read using ATPlite (50 μL added per well), which quantifies the amount of ATP (a measure of cell health) present in each well. Assay plates are read using the Envision luminometer. In parallel, cytotoxicity is examined on an additional 96-well plate treated in an identical manner, but substituting the 25 μL of viral stock for 25 μL of growth media. […] EC50 ranges are as follows: A<0.4 μM; B 0.4-0.8 μM; C>0.8 μM.
In general terms: ATP-based viability assays read luminescence as a measure of living cells.

In assay [2] the test system is Human RSV-B (genotype B, strain 9320). The assay is described as follows: RSV-B assay (qPCR or ATPlite) in A549 cells. The format is cell-based. The following applies: human respiratory syncytial virus, 144 h, strain 9320, MOI 0.5, 6 days post infection, qPCR or ATPlite readout. From the text: Hep-2 cells, (originally derived from tumors grown in irradiated-cortisonised weanling rats that had been injected with epidermoid carcinoma tissue from a person's larynx, but later found to be indistinguishable from HeLa cells by PCR DNA analysis), were used for the culturing of genotype B, strain 9320. Flasks were inoculated with RSV-B and viral stocks were collected once cytopathic effect (CPE) was greater than 90%. Viral stocks in 25% sucrose media were snap frozen using liquid nitrogen to increase viral stability. Viral stock titers were quantified by tissue culture infectious dose 50% (TCID50) using 8,000 cells per well and 5-fold viral dilutions across a 96-well plate, cultured for 4 days. Viral stock titers were also quantified by a plaque forming unit assay, as described elsewhere.
The assay is run as follows: A549 cells (originally derived through explant culture from a person's carcinomatous lung tissue) are seeded into the inner 60 wells of a 96-well plate at 3,000 cells per well in a volume of 50 μL using A549 growth media (F-12K Media, 1% Penn/Strep, 1% nonessential amino acids, 10% heat-inactivated FBS). 2-fold serial dilutions of control and test compounds are added to the wells in duplicate in a total volume of 25 μL. Viral stock is then added to the wells at a multiplicity of infection (MOI) of 0.5 in a volume of 25 μL, bringing the total volume of each well to 100 μL. The MOI is calculated using the PFU/mL, or TCID50 if unavailable. Each 96-well plate has a control column of 6 wells with cells and virus but no compound (negative control, max CPE), a column with cells but no compound or virus (positive control, minimum CPE), and a column with no cells or virus or compound (background plate/reagent control). The control wells with cells but no virus are given an additional 25 μL of growth media containing an equal quantity of sucrose as those wells receiving the viral stock in order to keep consistent in media and volume conditions. The outer wells of the plate are filled with 125 μL of moat media (DMEM, 1% Penn/Strep) to act as a thermal and evaporative moat around the test wells. 6 days post infection, the plates are read using qPCR or ATP lite (50 μL added per well), which quantifies the amount of ATP (a measure of cell health) present in each well. Assay plates treated with APTlite are read using the Envision luminometer. […] EC50 ranges are as follows: A<0.4 μM; B 0.4-0.8 μM; C>0.8 μM.
Background: In qPCR the cycle at which signal appears reflects the starting amount.

The source of these data is patent US11912695B2, “Benzodiazepine derivatives as RSV inhibitors” (ENANTA PHARMACEUTICALS, INC., priority 2019, dated 2024).

`CCc1ncc(-c2sc(C)nc2-c2nnc(N[C@@H]3N=C(c4ccccc4)c4cccc(F)c4NC3=O)o2)cn1` [Example 37]: the EC50 in assay [1] and in assay [2] was less than 400 nM in each case.
Consider `Cc1ncc(-c2sc(C)nc2-c2nnc(N[C@@H]3N=C(c4ccccc4)c4cccc(F)c4NC3=O)o2)cn1` [Example 38], for which the EC50 in assay [1] and in assay [2] was less than 400 nM throughout.
Turning to `Cc1ncc(-c2sc(C)nc2-c2nnc(N[C@H]3N=C(c4ccccc4)c4cccc(F)c4NC3=O)o2)cn1` [Example 39], the EC50 in assay [1] and in assay [2] was less than 400 nM in each case.
Turning to `Cc1nc(-c2nnc(N[C@@H]3N=C(c4ccccc4)c4cccc(F)c4NC3=O)o2)c(-c2cnc(C3CC3)nc2)s1` [Example 40], the half-maximal effective concentration (EC50) in assay [1] and in assay [2] was less than 400 nM throughout.
Consider `Cc1nc(-c2nnc(N[C@H]3N=C(c4ccccc4)c4cccc(F)c4NC3=O)o2)c(-c2cnc(C3CC3)nc2)s1` [Example 41], for which the EC50 in assay [1] and in assay [2] was less than 400 nM each time.
On to `CCc1ncc(-c2sc(C(F)(F)F)nc2-c2nnc(N[C@@H]3N=C(c4ccccc4)c4cccc(F)c4NC3=O)o2)cn1` [Example 42], for which the concentration giving a half-maximal response (EC50) in assay [1] and in assay [2] was less than 400 nM each time.
Take `CCc1ncc(-c2sc(C3CC3)nc2-c2nnc(N[C@H]3N=C(c4ccccc4)c4cccc(F)c4NC3=O)o2)cn1` [Example 43]: the EC50 in assay [1] and in assay [2] was less than 400 nM each time.
Turning to `CCc1ncc(-c2sc(C3CC3)nc2-c2nnc(N[C@@H]3N=C(c4ccccc4)c4cccc(F)c4NC3=O)o2)cn1` [Example 44], the concentration for a half-maximal effect (EC50) in assay [1] and in assay [2] was less than 400 nM in each case.
For the compound `O=C1Nc2c(F)cccc2C(c2ccccc2)=N[C@H]1Nc1nnc(-c2nc(C3CC3)sc2-c2cnc(C3CC3)nc2)o1` [Example 47], the concentration giving a half-maximal response (EC50) in assay [1] and in assay [2] was less than 400 nM throughout.
With `O=C1Nc2c(F)cccc2C(c2ccccc2)=N[C@@H]1Nc1nnc(-c2nc(C3CC3)sc2-c2cnc(C3CC3)nc2)o1` [Example 48], the EC50 in assay [1] and in assay [2] was less than 400 nM each time.
Turning to `CCc1ncc(-c2sc(C3CC3)nc2-c2nnc(N[C@@H]3N=C(c4ccccc4)c4ccccc4NC3=O)o2)cn1` [Example 49], the concentration giving a half-maximal response (EC50) was 400 to 800 nM in assay [1] and less than 400 nM in assay [2].
The corresponding values for `CCc1ncc(-c2sc(C3CC3)nc2-c2nnc(N[C@H]3N=C(c4ccccc4)c4ccccc4NC3=O)o2)cn1` [Example 50] are less than 400 nM and less than 400 nM.
For `CCc1nc(-c2nnc(N[C@@H]3N=C(c4ccccc4)c4cccc(F)c4NC3=O)o2)c(-c2cnc(C)nc2)s1` [Example 51], the 50% effective concentration (EC50) in assay [1] was 400 to 800 nM; in assay [2], less than 400 nM.
The matching figures for `CCc1nc(-c2nnc(N[C@H]3N=C(c4ccccc4)c4cccc(F)c4NC3=O)o2)c(-c2cnc(C)nc2)s1` [Example 52]: less than 400 nM and less than 400 nM.
The corresponding values for `CCc1nc(-c2nnc(N[C@@H]3N=C(c4ccccc4)c4cccc(F)c4NC3=O)o2)c(-c2cnc(C3CC3)nc2)s1` [Example 53] are 400 to 800 nM and less than 400 nM.
In the case of `CCc1nc(-c2nnc(N[C@H]3N=C(c4ccccc4)c4cccc(F)c4NC3=O)o2)c(-c2cnc(C3CC3)nc2)s1` [Example 54], the EC50 in assay [1] and in assay [2] was less than 400 nM throughout.
In the case of `Cc1ncc(-c2sc(C3CC3)nc2-c2nnc(N[C@@H]3N=C(c4ccccc4)c4cccc(F)c4NC3=O)o2)cn1` [Example 55], the results for the EC50 in assay [1] and in assay [2] were more than 800 nM and less than 400 nM, respectively.
For `Cc1ncc(-c2sc(C3CC3)nc2-c2nnc(N[C@H]3N=C(c4ccccc4)c4cccc(F)c4NC3=O)o2)cn1` [Example 56], the EC50 in assay [1] and in assay [2] was less than 400 nM throughout.
With `CCc1ncc(-c2sc(C3CCC3)nc2-c2nnc(N[C@H]3N=C(c4ccccc4)c4cccc(F)c4NC3=O)o2)cn1` [Example 58], the EC50 in assay [1] and in assay [2] was less than 400 nM each time.
Consider `CCc1ncc(-c2sc(C3CCC3)nc2-c2nnc(N[C@@H]3N=C(c4ccccc4)c4cccc(F)c4NC3=O)o2)cn1` [Example 59], for which the half-maximal effective concentration (EC50) in assay [1] and in assay [2] was less than 400 nM throughout.
As to `Cc1ncc(-c2sc(C3CCC3)nc2-c2nnc(N[C@@H]3N=C(c4ccccc4)c4cccc(F)c4NC3=O)o2)cn1` [Example 60], the EC50 in assay [1] and in assay [2] was less than 400 nM in each case.
`Cc1ncc(-c2sc(C3CCC3)nc2-c2nnc(N[C@H]3N=C(c4ccccc4)c4cccc(F)c4NC3=O)o2)cn1` [Example 61]: the concentration giving a half-maximal response (EC50) in assay [1] and in assay [2] was less than 400 nM each time.
Regarding `CCc1ncc(-c2sc(C3(C(F)(F)F)CC3)nc2-c2nnc(N[C@@H]3N=C(c4ccccc4)c4cccc(F)c4NC3=O)o2)cn1` [Example 62], the concentration for a half-maximal effect (EC50) in assay [1] is 400 to 800 nM; in assay [2], less than 400 nM.
In the case of `CCc1ncc(-c2sc(C3(C(F)(F)F)CC3)nc2-c2nnc(N[C@H]3N=C(c4ccccc4)c4cccc(F)c4NC3=O)o2)cn1` [Example 63], the concentration giving a half-maximal response (EC50) in assay [1] and in assay [2] was less than 400 nM in each case.
Turning to `O=C1Nc2c(F)cccc2C(c2ccccc2)=N[C@H]1Nc1nnc(-c2nc(C3CCC3)sc2-c2cnc(C3CC3)nc2)o1` [Example 64], the 50% effective concentration (EC50) in assay [1] was more than 800 nM; in assay [2], less than 400 nM.
The matching figures for `O=C1Nc2c(F)cccc2C(c2ccccc2)=N[C@@H]1Nc1nnc(-c2nc(C3CCC3)sc2-c2cnc(C3CC3)nc2)o1` [Example 65]: less than 400 nM and less than 400 nM.
The matching figures for `Cc1ncc(-c2sc(C3(C)CC3)nc2-c2nnc(N[C@@H]3N=C(c4ccccc4)c4cccc(F)c4NC3=O)o2)cn1` [Example 66]: 400 to 800 nM and less than 400 nM.
The matching figures for `Cc1ncc(-c2sc(C3(C)CC3)nc2-c2nnc(N[C@H]3N=C(c4ccccc4)c4cccc(F)c4NC3=O)o2)cn1` [Example 67]: less than 400 nM and less than 400 nM.
Consider `CCc1ncc(-c2sc(C3(C)CC3)nc2-c2nnc(N[C@@H]3N=C(c4ccccc4)c4cccc(F)c4NC3=O)o2)cn1` [Example 68], for which the EC50 in assay [1] and in assay [2] was less than 400 nM each time.
In the case of `CCc1ncc(-c2sc(C3(C)CC3)nc2-c2nnc(N[C@H]3N=C(c4ccccc4)c4cccc(F)c4NC3=O)o2)cn1` [Example 69], the EC50 in assay [1] and in assay [2] was less than 400 nM in each case.
On to `CCc1ncc(-c2sc(C3(C(F)(F)F)CC3)nc2-c2nnc(N[C@@H]3N=C(c4ccccc4)c4ccccc4NC3=O)o2)cn1` [Example 70], for which the EC50 in assay [1] and in assay [2] was more than 800 nM in each case.
On to `CCc1ncc(-c2sc(C3(C(F)(F)F)CC3)nc2-c2nnc(N[C@H]3N=C(c4ccccc4)c4ccccc4NC3=O)o2)cn1` [Example 71], for which the concentration for a half-maximal effect (EC50) in assay [1] and in assay [2] was less than 400 nM in each case.
On to `Cc1ncc(-c2sc(C3(C(F)(F)F)CC3)nc2-c2nnc(N[C@@H]3N=C(c4ccccc4)c4cccc(F)c4NC3=O)o2)cn1` [Example 72], for which the EC50 in assay [1] is more than 800 nM; in assay [2], less than 400 nM.

As usually defined, the EC50 is the midpoint of the concentration-response curve. A low value points to a more potent agent.
